Assay type in all cases: in vivo, SD rats
The subject of assay [1] is IL-6. Kind of assay: IL-6 in bladder tissue by RT-PCR. The following applies: rebamipide group vs CYP group. The procedure:
(§1) To 12-week old male SD rats, cyclophosphamide (150 mg/kg) was intraperitoneally administered under isoflurane anesthetization. Immediately after that, rebamipide (1 mM or 10 mM, 300 μL) or vehicle was injected into the bladder, and the rats were held in the supine position for 1 hour. (3) TNFα, IL-6 and IL-1β which are inflammatory cytokines in bladder tissue were measured by RT-PCR, and an inflammation marker, MPO, was measured by ELISA.

Assay [2] has as its system MPO. Kind of assay: MPO inflammation marker in bladder tissue by ELISA. The following applies: rebamipide group vs CYP group. The procedure: as §1
The subject of assay [3] is rat model of chronic cystitis. Kind of assay: H&E staining of removed bladder to score the degree of inflammation. The procedure: To 12-week old male SD rats, cyclophosphamide (150 mg/kg) was intraperitoneally administered under isoflurane anesthetization. Immediately after that, rebamipide (1 mM or 10 mM, 300 μL) or vehicle was injected into the bladder, and the rats were held in the supine position for 1 hour. (2) After two days, the bladder was removed, and H&E stained to score the degree of inflammation

Assay [4] has as its system TNFα. Briefly: TNFα in bladder tissue by RT-PCR. The note with it: rebamipide group vs CYP group. The procedure: as §1
For assay [5], the system named is IL-1β. Briefly: IL-1β in bladder tissue by RT-PCR. The note with it: rebamipide group vs CYP group. On the procedure:
as §1

Assay [6] concerns rat model of chronic cystitis. Briefly: Conscious cystometrography in rat model of chronic cystitis (cyclophosphamide). The following applies: 300 μL into the bladder, cyclophosphamide 150 mg/kg i.p., after two days. The procedure:
In addition, experiments were performed for studying effects of the present invention on cystitis using a rat model of chronic cystitis. To 12-week old male SD rats, cyclophosphamide (150 mg/kg) was intraperitoneally administered under isoflurane anesthetization. Immediately after that, rebamipide (1 mM or 10 mM, 300 μL) or vehicle was injected into the bladder, and the rats were held in the supine position for 1 hour. (1) After two days, conscious cystometrography was performed (the saline perfusion flow rate: 0.04 ml/min) was performed.

The mark [7] stands for this setting: rebamipide group vs CYP group, after two days.

SMILES strings stand for the structures.

For the compound `O=C(NC(Cc1cc(=O)[nH]c2ccccc12)C(=O)O)c1ccc(Cl)cc1` (stereo not drawn) [rebamipide, 2-(4-chlorbenzoylamino)-3-(2-quinolone-4-yl)propionic acid], the “level of IL-6 in the bladder tissue” value in assay [1] is given as “increase was suppressed”. Besides, the “level of MPO in the bladder tissue” value in assay [2] was “increase was suppressed”. Besides, in assay [3] (setting [7]), the invasive inflammatory cells entry is recorded as “significantly reduced” and the submucosal edema result is “significantly reduced”. Further, the bladder inflammation result in assay [3] (rebamipide injected into the bladder, summary) is listed as “suppressed”. Also, in assay [4], the “level of TNFα in the bladder tissue” value was “increase was suppressed”. The “level of IL-1β in the bladder tissue” value in assay [5] is listed as “increase was suppressed”. In assay [6] (1 mM), this compound showed a urination interval of 14.4 ± 2.1 min. Moreover, the urination interval in assay [6] (10 mM) was determined as 21.1 ± 2.5 min.

Source of the values: patent US9226926B2, “Therapeutic agent for lower urinary tract disease” (N.M.A. Co., Ltd., priority 2013, dated 2016).
